Experiments:
[1] = Lipophilicity: transfer potential at ITIES (water/1,6-dichlorohexane) by DPV; format: physicochemical; conditions: aqueous phase C=0.32 mM to 1,6-dichlorohexane, physiological pH
Procedure: In an embodiment, and as an example, the AntiOxBEN1 and AntiOxBEN2 lipophilic properties were evaluated using differential pulse voltammetry (DPV) at physiological pH. The used technique is often used to mimic the transfer of ionic drugs through biological membranes as the process occurs at the interface between two immiscible electrolyte solutions (ITIES). The transfer potential (Etr) at which the ionic drug, initially present in the aqueous phase (C=0.32 mM), is transferred to 1,6-dichlorohexane (DCH) phase is measured by differential pulse voltammetry (DPV). In the ITIES model, the transfer potential (Etr) becomes less positive with the increasing of the drug lipophilic character.
In an embodiment, the electrochemical analytical data was obtained using a computer controlled potentiostat Autolab PGSTAT302N (Metrohm Autolab, Utrecht, Netherlands). Generally, cyclic voltammetry (CV) data was acquired at a scan rate of 50 mVs^−1. Differential pulse voltammetry (DPV) results were acquired at a step potential of 4 mV, pulse amplitude of 50 mV and scan rate of 8 mVs^−1. The electrochemical signals were monitored by the General Purpose Electrochemical System (GPES) version 4.9, software package. […]

[2] = system: mitochondrial permeability transition pore (mPTP); test: Mitochondrial swelling / mitochondrial permeability transition pore opening; format: biochemical, rat; conditions: 2.5, 5, 10 μM pre-incubated 5 min before Ca2+
Procedure: In an embodiment, and as an example, the effects of some AntiOxBENs on mitochondrial permeability transition pore (mPTP) opening were evaluated. In general, the tested AntiOxBENs had no effect per se on mPTP opening for all tested concentrations.
Increasing concentrations of AntiOxBENs (2.5-10 μM) were added to the reaction medium (200 mM sucrose, 1 mM KH2PO4, 10 mM Tris (pH 7.4), 5 mM succinate and 10 μM EGTA supplemented with 1.5 μM rotenone), in the presence of RLM (1 mg), and allowed to incubate for a 5 min period before the assay. The experiments were initiated by the addition of a suitable concentration of Ca^2+ (15-50 μM), titrated every day. […] The reaction was stirred continuously and the temperature maintained at 37° C.

In the case of O=C(NCCCCCC[P+](c1ccccc1)(c1ccccc1)c1ccccc1)c1ccc(O)c(O)c1.[Br-] [AntiOxBEN1, 6-(3,4-dihydroxybenzamido)hexyltriphenylphosphonium bromide], the “transfer potential (Etr)” value [1] is reported as 0.405 V.
In the case of O=C(NCCCCCC[P+](c1ccccc1)(c1ccccc1)c1ccccc1)c1cc(O)c(O)c(O)c1.[Br-] [AntiOxBEN2, 6-(3,4,5-trihydroxybenzamido)hexyltriphenylphosphonium bromide], the “transfer potential (Etr)” value [1] is reported as 0.495 V.
In the case of O=C(CCCCC[P+](c1ccccc1)(c1ccccc1)c1ccccc1)NCCCCCCNC(=O)c1cc(O)c(O)c(O)c1.[Br-] [AntiOxBEN3, [5-(6-(3,4,5-trihydroxybenzamido)hexylamino)carbonylpentyl]triphenylphosphonium bromide], the “concentration-dependent inhibition of calcium-dependent mPTP opening” value [2] is reported as “caused a concentration-dependent inhibition”.

Reference: US11078222B2, “Hydroxybenzoic acid derivatives, methods and uses thereof” (UNiVERSIDADE DO PORTO, priority 2016, dated 2021)
